Laboratory results: US10029000B2, “Uses of IL-12 in hematopoiesis” (University of Southern California, priority 2003, dated 2018)

B1: IL-23: a heterodimer (p19+p40), which shares the same subunit p40 with IL-12 (protein, UniProt Q9NPF7 20-189; P29460 23-328, looked up)
Interleukin-23 subunit alpha: RAVPGGSSPAWTQCQQLSQKLCTLAWSAHPLVGHMDLREEGDEETTNDVPHIQCGDGCDPQGLRDNSQFCLQRIHQGLIFYEKLLGSDIFTGEPSLLPDSPVGQLHASLLGLSQLLQPEGHHWETQQIPSLSPSQPWQRLLLRFKILRSLQAFVAVAARVFAHGAATLSP
Interleukin-12 subunit beta: IWELKKDVYVVELDWYPDAPGEMVVLTCDTPEEDGITWTLDQSSEVLGSGKTLTIQVKEFGDAGQYTCHKGGEVLSHSLLLLHKKEDGIWSTDILKDQKEPKNKTFLRCEAKNYSGRFTCWWLTTISTDLTFSVKSSRGSSDPQGVTCGAATLSAERVRGDNKEYEYSVECQEDSACPAAEESLPIEVMVDAVHKLKYENYTSSFFIRDIIKPDPPKNLQLKPLKNSRQVEVSWEYPDTWSTPHSYFSLTFCVQVQGKSKREKKDRVFTDKTSATVICRKNASISVRAQDRYYSSSWSEWASVPCS

Test system: lethally irradiated mice
Test: Radioprotection assay: survival of mice after total body lethal irradiation
Type: in vivo, mice (C57BL/6J)
Settings: cytokine given 1 hour post lethal dose radiation; for Survives: 4-5 mice per group
Method: Mice received recombinant murine IL-12 (100 ng/mouse (which is about 5 ug/kg on average), intravenous injection) before (24 hours) or after (1 hour) lethal dose radiation (1000 rad). Mice in control group received equal volume of PBS buffer. Survival rate were analyzed by Kaplan-Meier method and p value was calculated using Log Rank Test.
To determine the minimum effective radioprotective dose of IL-12, different dose of IL-112 were administered to lethally irradiated animals before (24 hours before) or post (within one hour) lethal dose ionizing radiation.
IL-12 was administrated to mice at different doses 24 hours before radiation to determine if there is a dose dependent relationship between the concentration of IL-12 administration and survival from lethal irradiation.
To further explore the relationship of IL-12 hematopoietic rescue effect as it may relate to the time of administration, IL-12 was administrated to lethally irradiated animals at different time before and after the radiation. The following time points were tested: −48, −36, −24, and −12 hours before radiation, or +1, +12, +24, and +36 hours post radiation.
A study was conducted to determine if the radioprotective effect of IL-12 administration is specific and INF- ? independent. […] Also, an assessment was made to determine if there was a synergistic effect between GM-CSF and IL-12.
Mice were provided with acid water for one week before the radioprotection assay. Cytokines, diluted in phosphate buffered saline (PBS), pH 7.4, were intravenously injected into mice before or after total body lethal irradiation (TBI) at the specified times. Control group mice were injected with PBS buffer. For TBI, mice were either exposed twice to ionizing irradiation ( ? -ray from Cesium 137) at 500 rad dose with a 3 hour interval, or one time at a dose of 1000 rad in a Gammacell 40 machine from Atomic Energy of Canada LTD (Kanafa, Ontario, Canada). The ? -ray exposure rate is 1 Gy/min. […] After irradiation, mice were given water containing antibiotics. For the survival curve, the Kaplan-Meier method was used. Each experiment was repeated three or more times.

Molecule | Survival rate (%) | radioprotective effect | Survives
GM-CSF: a cytokine to stimulate G and M cell production | 0% | did not show any radioprotective effect | 0
IL-18: cytokine that, like IL-12, can induce the release of interferon | 0% | no radioprotective effect | 0
B1 | 0% | no radioprotective effect | 0
